We go through 17 compounds from publication PMC4580987, “Catalytic site inhibition of insulin-degrading enzyme by a small molecule induces glucose intolerance in mice” (Nature Communications, 2015).

Molecules are shown by their SMILES. Bounds are passed on as bounds.

The test system of data set [1] is mice. Further details: method as in Maianti et al, Nature 2014. The settings on record: ref Maianti et al, Nature 2014, cited from earlier work.
In data set [2] the target is T1, hIDE (Homo sapiens, UniProt P14735).
T1 construct: made in house
T1 sequence (P14735 1-1019): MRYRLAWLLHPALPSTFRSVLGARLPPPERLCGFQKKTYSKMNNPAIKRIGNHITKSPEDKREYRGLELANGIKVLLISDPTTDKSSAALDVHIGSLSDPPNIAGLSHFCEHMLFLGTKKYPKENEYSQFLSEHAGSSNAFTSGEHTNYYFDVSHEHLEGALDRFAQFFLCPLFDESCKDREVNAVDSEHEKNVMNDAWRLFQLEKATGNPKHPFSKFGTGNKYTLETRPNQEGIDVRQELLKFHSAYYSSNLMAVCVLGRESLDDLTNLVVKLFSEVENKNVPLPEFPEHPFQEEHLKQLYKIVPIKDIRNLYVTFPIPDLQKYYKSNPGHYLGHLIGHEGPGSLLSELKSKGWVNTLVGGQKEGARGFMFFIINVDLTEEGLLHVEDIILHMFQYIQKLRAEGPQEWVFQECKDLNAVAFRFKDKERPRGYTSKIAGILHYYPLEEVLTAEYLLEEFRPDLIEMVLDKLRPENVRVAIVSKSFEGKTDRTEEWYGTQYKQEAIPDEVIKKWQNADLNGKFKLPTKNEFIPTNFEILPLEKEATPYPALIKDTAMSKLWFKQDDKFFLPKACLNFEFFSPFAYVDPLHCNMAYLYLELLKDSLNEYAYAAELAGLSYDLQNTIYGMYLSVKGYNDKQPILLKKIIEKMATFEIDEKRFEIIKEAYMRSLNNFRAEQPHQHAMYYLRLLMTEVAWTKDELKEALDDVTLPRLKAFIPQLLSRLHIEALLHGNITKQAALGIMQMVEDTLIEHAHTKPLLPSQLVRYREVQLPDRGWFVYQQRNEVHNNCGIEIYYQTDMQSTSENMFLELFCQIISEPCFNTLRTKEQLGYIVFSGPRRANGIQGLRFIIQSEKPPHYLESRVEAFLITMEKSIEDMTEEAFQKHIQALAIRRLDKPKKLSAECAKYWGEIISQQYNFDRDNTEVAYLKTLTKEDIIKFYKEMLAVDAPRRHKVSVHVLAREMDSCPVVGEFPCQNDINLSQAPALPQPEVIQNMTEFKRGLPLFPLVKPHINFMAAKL
As to the kind of experiment: In vitro hIDE inhibition of Aβ16–23-based substrate hydrolysis. The data set is classed as biochemical. Particulars: for inhibition at 100 µM: 100 µM (footnote c). On the procedure: In vitro IDE activity was measured with a quenched substrate […]. Human recombinant IDE was cloned and purified as previously described. […] All measurements were carried out as 8-point dose response curves and reported as the average of at least three independent measurements. […] Data analysis was performed using Xlfit v 5.0 and GraphPad Prism v 4.0. Nonlinear curve fitting and statistical analysis was done using built-in functions.

Data set [3] deals with T1, hIDE. Briefly: In vitro hIDE inhibition of insulin hydrolysis. The format is biochemical. The settings on record: for IC50: full insulin substrate, value (CI 95%), mean of 3 to 10 experiments, read-out: IC50 insulin hydrolysis. As to the method:
The enzymatic activity of hIDE was assayed quantifying the amount of insulin (Actrapid) at the end of the reaction. The quantity of insulin was determined using a Luminex kit (HMHMAG-34K, Millipore). 20 μl of WT IDE in Hepes buffer (50 mM with 100 mM NaCl, pH 7.4) at 1 μg ml^−1 were pre-incubated 10 min at ambient temperature with 20 μl of test compound or vehicle in 96-well microtiter plates (dark, non-binding surface). The reaction was then started by the addition of 40 μl of insulin at 40 nM. The final concentration of hIDE and substrate was 0.25 μg ml^−1 and 20 nM, respectively. Incubations were performed at ambient temperature for 10 min. The reaction was then stopped by addition of 80 μl of 200 mM EDTA. The samples were diluted by a factor of 3, and 15 μl were transferred to 96-well microtiter plates (dark, clear bottom, non-binding surface) containing 15 μl of assay buffer (from Luminex Kit). Fifteen microlitre of insulin magnetic beads were added. Incubation was performed during 16–18 h at 4 °C under agitation. Wells were washed three times and 30 μl of hormone panel antibodies were added. The samples were incubated 30 min at ambient temperature under agitation. 30 μl of strepdavidin-phycoerythrin were added. Incubation was performed 30 min at ambient temperature under agitation. Wells were washed three times and 80 μl of drive fluid were added. The plate was then read with the MagPix apparatus. Data analysis was performed using Xlfit v 5.0 and GraphPad Prism v 4.0. Nonlinear curve fitting and statistical analysis was done using equation 1: […]
where A is minimum value of y; B is range of y; C is the IC50 value and D is slope factor.

In data set [4] the test system is human SY5Y neuroblastoma cells. Briefly: Aβ1–40 secretion by differentiated SH-SY5Y cells (ELISA). The format is cell-based. Particulars: 10 μM and 30 μM, 48 h. As to the method:
The human neuroblastoma cell lines SH-SY5Y were provided from ATCC (cat. no. crl2266) with a Certificate of Analysis and not checked in the lab for mycoplasma contamination. […] SH-SY5Y were seeded in a 96-well plate at 200,000 cells per cm^2. […] Differentiated cells were then incubated with compounds at 10 μM and 30 μM in presence of 0.1% DMSO.

Data set [5] addresses T1, hIDE. As to the kind of experiment: 19F NMR ligand-observed interaction with the enzyme. The format is binding. The settings on record: 5 μM enzyme. As to the method: […] The carrier frequency was set at −100 p.p.m. with a spectral window of 40 ppm, and 4,024 scans were recorded per sample, except for the 6.25 μM sample for which 12,288 scans were recorded.

The IC50 is the concentration at which inhibition is half-maximal. By melting point is commonly meant the temperature of the solid-liquid transition. In general, inhibition refers to the percentage by which the read-out fell short of the control. Lower therefore signals a weak effect.

Take `NCCCC[C@@H]1NC(=O)/C=C/C(=O)N[C@H](C(N)=O)CCCCNC(=O)[C@@H](Cc2ccc(C(=O)c3ccccc3)cc2)NC(=O)[C@H](CC2CCCCC2)NC1=O` [6bK]: the “glucose tolerance in OGTT, 6bK” value in data set [1] (IDE dependant, GLP-1 dependant, insulin driven) is “Improves glucose tolerance in OGTT”. The “glucose tolerance in IPGTT, 6bK” value in data set [1] (IDE dependant) is “Impairs glucose tolerance in IPGTT”. For the same compound, in data set [1], the “gluconeogenesis in a pyruvate tolerance test, 6bK” value was “Lowers gluconeogenesis” and the “insulin action in vivo (ITT), 6bK” value is reported as “Augments insulin action in vivo”.

As to `O=C(C[C@@H](Cc1ccc2ccccc2c1)n1cc(CNC(=O)c2ccccc2)nn1)NO` [Compound 2], the melting point was in the range of 192.8 to 194 °C. Also, half-maximal inhibition in data set [2] (IC50) required 0.7 µM. In addition, in data set [3], the IC50 was 0.51 µM.

Regarding `Cc1ccc(C(=O)NCc2cn([C@@H](CC(=O)NO)Cc3ccc4ccccc4c3)nn2)cc1` [Compound 3], the melting point lay within 181.7 to 182.6 °C. In addition, in data set [2], inhibition was half-maximal at 2.7 µM (IC50). Moreover, the IC50 in data set [3] is 6.7 µM.

`COc1ccc(C(=O)NCc2cn([C@@H](CC(=O)NO)Cc3ccc4ccccc4c3)nn2)cc1` [Compound 4] gave a melting point of 178.3 to 179.6 °C. The IC50 in data set [2] worked out at 4.5 µM. The IC50 in data set [3] amounted to 3.4 µM.

Turning to `O=C(C[C@@H](Cc1ccc2ccccc2c1)n1cc(CNC(=O)C2CCCCC2)nn1)NO` [Compound 5], the melting point lay within 176.6 to 177.9 °C. The compound further returned an IC50 in data set [2] of 0.8 µM. Moreover, in data set [3], the IC50 came to 0.44 µM.

Take `O=C(C[C@@H](Cc1ccc2ccccc2c1)n1cc(CNC(=O)Cc2ccccc2)nn1)NO` [Compound 6]: the IC50 turned out to be 3.2 µM in data set [2] and 0.74 µM in data set [3].

In the case of `Cc1ccc(CC(=O)NCc2cn([C@@H](CC(=O)NO)Cc3ccc4ccccc4c3)nn2)cc1` [Compound 7], the results for the IC50 in data set [2] and in data set [3] were 12 µM and 2.3 µM, respectively.

As for `O=C(C[C@@H](Cc1ccc2ccccc2c1)n1cc(CNS(=O)(=O)c2ccc(F)cc2)nn1)NO` [Compound 9], the melting point lay within 157.1 to 158.7 °C. The compound further showed an IC50 in data set [2] of 5.7 µM. In addition, the IC50 in data set [3] was found to be 6 µM.

In the case of `Cc1ccc(C(=O)NCc2cn(C(CC(=O)NO)Cc3ccccc3)nn2)cc1` (centres unmarked) [Compound 10], the results for the IC50 in data set [2] and in data set [3] were more than 100 µM and 6.1 µM, respectively. In addition, the inhibition at 100 µM in data set [2] is less than 10%. Further, in data set [3] (relative to compound 1), the “fold less active than 1 against purified IDE” value amounted to 100 fold. Further, the “Aβ1–40 in culture supernatants” value in data set [4] was “had no effect”.

Take `O=C(CC(Cc1ccc2ccccc2c1)c1nc(CNC(=O)c2ccccc2)no1)NO` (centres unmarked) [Compound 11]: the IC50 in data set [2] turned out to be 74 µM; in data set [3], 9.6 µM.

As to `O=C(C[C@@H](Cc1ccc2ccccc2c1)c1nc(CNC(=O)c2ccc(F)cc2)no1)NO` [Compound 12], the results for the IC50 in data set [2] and in data set [3] were 29 µM and 6.5 µM, respectively.

For `O=C(O)C[C@@H](Cc1ccc2ccccc2c1)n1cc(CNC(=O)c2ccc(F)cc2)nn1` [Compound 14], the IC50 in data set [2] was more than 100 µM; in data set [3] it was 30 µM.

As to `O=C(C[C@H](Cc1ccc2ccccc2c1)n1cc(CNC(=O)c2ccc(F)cc2)nn1)NO` [Compound 15], the IC50 in data set [2] amounted to 2.8 µM; in data set [3], 2 µM.

Take `O=C(C[C@@H](Cc1ccc2ccccc2c1)n1nncc1CNC(=O)c1ccc(F)cc1)NO` [Compound 16]: in data set [2], the IC50 was more than 100 µM and the inhibition at 100 µM is less than 10%. In data set [3], the IC50 turned out to be 12.1 µM. Besides, in data set [5], the “19F NMR signal in the presence of enzyme at 2:1 or 1:1 compound:enzyme ratio” value was “signal intensity remains detectable”.

As for `O=C(C[C@@H](Cc1ccc2ccccc2c1)n1nncc1CNC(=O)C1CCCCC1)NO` [Compound 17], the IC50 in data set [2] was more than 100 µM; in data set [3], 30 µM. The inhibition at 100 µM in data set [2] was less than 10%.

Regarding `O=C(CC(Cc1ccccc1)n1cc(CNC(=O)c2ccc(F)cc2)nn1)NO` (centres unmarked) [Compound 19], the IC50 was 80 µM in data set [2] and more than 100 µM in data set [3]. In addition, the inhibition at 300 µM in data set [3] (300 µM (footnote d)) is 50%.

With `O=C(O)CN(CCN(CC(=O)O)CC(=O)O)CC(=O)O` [EDTA, reference compound], the “inhibition of IDE by reference inhibitor” value in data set [2] (2 mM) is reported as 100%.
